Laboratory results reported in patent US6544991B2, “Compositions and methods for treating bacterial infections” (priority 2000, dated 2003).

Key:
[1] = tested on: VRSA strains; experiment: MIC by agar dilution or microbroth dilution method (NCCLS), VRSA strains; format: cell-based, Staph. aureus; conditions: VRSA strains (n = 10)
In short: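 Clinical isolates from human infections, including VRSA strains from five countries, with S. aureus 29213 as QC strain. MICs by NCCLS agar dilution or microbroth dilution; combination synergy by agar dilution checkerboard, expressed as FIC index from MIC in combination over MIC alone.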

[2] = tested on: MRSA strains; experiment: MIC by agar dilution or microbroth dilution method (NCCLS); format: cell-based, Staph. aureus
In short: (§1)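 MICs determined by NCCLS agar dilution or microbroth dilution on clinical isolates, with Staph. aureus 29213 as quality control strain. Synergy by agar dilution checkerboard; FIC computed as MIC of drug in combination divided by MIC alone, summed into FIC index.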

[3] = tested on: Staph. aureus 29213; experiment: MIC, quality control strain; format: cell-based
In short: as §1

- MICs 50% [1]: >128 mg/L
- MICs 90% [1]: >128 mg/L
- MICs Range [1]: >128 mg/L
- MICs 50% ([2]; MRSA strains (n = 38)): >128 mg/L
- MICs 90% ([2]; MRSA strains (n = 38)): >128 mg/L
- MIC Values ([2]; strain 85/2082): >128 µg/mL
- MIC Values ([2]; strain 99.3700W): >128 µg/mL
- MIC Values ([2]; strain 99.3759V): >128 µg/mL
- MIC Values ([2]; strain AMC 11094): >128 µg/mL
- MIC Values ([2]; strain BM12612(new)): >128 µg/mL
- MIC Values ([2]; strain H1): 2048 µg/mL
- MIC Values ([2]; strain HIP 5827): >128 µg/mL
- MIC Values ([2]; strain HIP 5836): >128 µg/mL
- MIC Values ([2]; strain HIP 6297): >128 µg/mL
- MIC Values ([2]; strain HIP 7737): >128 µg/mL
- MIC Values ([2]; strain JSCC 340): >128 µg/mL
- MIC Values ([2]; strain JSCC 351): >128 µg/mL
- MIC Values ([2]; strain JSCC 363): >128 µg/mL
- MIC Values ([2]; strain JSCC 381): >128 µg/mL
- MIC Values ([2]; strain JSCC 390): >128 µg/mL
- MIC Values ([2]; strain JSCC 401): >128 µg/mL
- MIC Values ([2]; strain JSCC 413): >128 µg/mL
- MIC Values ([2]; strain JSCC 431): >128 µg/mL
- MIC Values ([2]; strain JSCC 440): >128 µg/mL
- MIC Values ([2]; strain JSCC 451): >128 µg/mL
- MIC Values ([2]; strain JSCC 463): >128 µg/mL
- MIC Values ([2]; strain JSCC 481): >128 µg/mL
- MIC Values ([2]; strain JSCC 490): >128 µg/mL
- MIC Values ([2]; strain JSCC 501): >128 µg/mL
- MIC Values ([2]; strain JSCC 513): >128 µg/mL
- MIC Values ([2]; strain JSCC 531): >128 µg/mL
- MIC Values ([2]; strain JSCC 540): >128 µg/mL
- MIC Values ([2]; strain JSCC 551): >128 µg/mL
- MIC Values ([2]; strain JSCC 563): 16 µg/mL
- MIC Values ([2]; strain JSCC 581 (lacks the mecA gene)): 16 µg/mL
- MIC Values ([2]; strain JSCC 590 (lacks the mecA gene)): 16 µg/mL
- MIC Values ([2]; strain JSCC 601): >128 µg/mL
- MIC Values ([2]; strain JSCC 640): >128 µg/mL
- MIC Values ([2]; strain JSCC 651): >128 µg/mL
- MIC Values ([2]; strain JSCC 663): >128 µg/mL
- MIC Values ([2]; strain JSCC 681): >128 µg/mL
- MIC Values ([2]; strain JSCC 690): >128 µg/mL
- MIC Values ([2]; strain JSCC 701): >128 µg/mL
- MIC Values ([2]; strain JSCC 713): >128 µg/mL
- MIC Values ([2]; strain JSCC 731): >128 µg/mL
- MIC Values ([2]; strain JSCC 740): >128 µg/mL
- MIC Values ([2]; strain JSCC 751): >128 µg/mL
- MIC Values ([2]; strain JSCC 763): >128 µg/mL
- MIC Values ([2]; strain JSCC 781): >128 µg/mL
- MIC Values ([2]; strain JSCC 870): >128 µg/mL
- MIC Values ([2]; strain LIM 2): >128 µg/mL
- MIC Values ([2]; strain Mu 3): >128 µg/mL
- MIC Values ([2]; strain Mu 50): >128 µg/mL
- MIC Values ([2]; strain N315): 64 µg/mL
- MIC Values ([2]; strain NCTC 10442): >128 µg/mL
- MIC Values ([3]; strain ATCC 29213, control sample (Ex. 26)): 8 µg/mL
- MIC Values ([3]; strain ATCC29213, control sample (Ex. 37)): 4 µg/mL
SMILES: CO/N=C(\C(=O)N[C@@H]1C(=O)N2C(C(=O)O)=CCS[C@H]12)c1csc(N)n1 [CZX, ceftizoxime]
